One data set has as its system OST-PTP mRNA. The data set is classed as cell-based, rat. The source says:
Poly A^+ RNA was extracted from an array of adult rat tissues: uterus, ovary, testis, kidney, heart, liver, lung, spleen, brain, skeletal muscle, smooth muscle, pancreas and retina. Poly A^+ RNA derived from UMR106 was used as a standard to control for expression in bone. […] RNA fractionated in such gels was transferred to Magnagraph nylon membrane (MSI) in 20× SSC by capillary action method. Two different types of probe; riboprobe (RNA) or random primed cDNA probe, were used depending on the experiment. […] All DNA probes were labeled with ^32 P-a (3000 Ci/mM) by the Random Primers DNA labeling kit using manufacturer's recommended conditions (GibcoBRL Life Technologies). […] For hybridizations, 10^6 cpms/ml probe was added. Following hybridization, the blots were washed twice at room temperature in 1× SSC+0.1% SDS (30 minutes per wash), and then washed twice in 0.1× SSC+0.1% SDS (30 minutes per wash) once at room temperature and once at 68° C. The prehybridization/hybridization conditions for the DNA probes were the same as described above except the temperature was lowered to 43° C. […] The washes were done as described above. The results were visualized either by autoradiography or by scanning with a phosphorimager (Molecular Dynamics). All quantifications were normalized against the amount of cyclophilin message which was considered to be standard for any given conditions.
Parathyroid hormone is an important bone hormone. […] The UMR106 cells were cultured as described above until confluence. The cells were then washed twice in phosphate buffered saline followed by incubation for 5 hours at 37° C. in serum free DMEM. After serum deprivation, 100 nM parathyroid hormone (PTH) was added to the cultures and incubation continued for 4, 8, 12, and 16 hours at 37° C. RNA was then isolated from the cells as described above.

Data set [1] has as its system other two novel PTPase clones. The data set can be described thus: Northern blot of other novel PTPase clones in PTH-treated UMR106 cells. The class given is cell-based, rat. Particulars: PTH treatment. As for the experimental part:
RNA was analyzed by Northern blot hybridization to determine the tissue specificity of the OST-PTP clone. Poly A^+ RNA was extracted from an array of adult rat tissues: uterus, ovary, testis, kidney, heart, liver, lung, spleen, brain, skeletal muscle, smooth muscle, pancreas and retina. Poly A^+ RNA derived from UMR106 was used as a standard to control for expression in bone. The RNA preparations were quantitated by absorbance at 260 nm and, depending on the message abundance, either total cellular RNA or poly A+ RNA was electrophoretically separated in a 6.6% formaldehyde-1%agarose gel. RNA fractionated in such gels was transferred to Magnagraph nylon membrane (MSI) in 20× SSC by capillary action method. Two different types of probe; riboprobe (RNA) or random primed cDNA probe, were used depending on the experiment. The riboprobe used for hybridization corresponded to the extracellular domain of OST-PTP, and was labeled by in vitro transcription using ^32 P-a (3000 Ci/mM) as described by manufacturers (Promega). […] All quantifications were normalized against the amount of cyclophilin message which was considered to be standard for any given conditions. […]

A further data set concerns UMR106 cells. Particulars: cited from earlier work.

Where only a bound is given, the exact number is not on record here.

On to parathyroid hormone [PTH], for which, in the data set with OST-PTP mRNA (UMR106 cells, 100 nM PTH, later than 4 hours (8, 12, 16 hours)), the “change of OST-PTP message at later time points” value is “further increases”. Besides, the “PTH concentration effective in increasing OST-PTP transcripts” value in the data set on OST-PTP mRNA (UMR106 cells, 18 hours) is 1 nM. Moreover, the “effect on OST-PTP transcripts of exposure for less than 4 hours” value in the data set on OST-PTP mRNA (UMR106 cells, regardless of concentration (10 pM-100 nM)) is “no significant effect”. The “increase of PTP-OST (OST-PTP) message” value in the data set on OST-PTP mRNA (umr106 cells, 4 h, 0.1 µM) was no more than 5 fold. In data set [1], the “effect of PTH on the other two novel PTPase clones” value is “Neither of the other two novel PTPase clones were altered”. Further, the “effect on cell proliferation and DNA synthesis” value in the data set on UMR106 cells is “inhibit cell proliferation, and DNA synthesis”.
